Test results: publication PMC10467108, “Of Seven New K^+ Channel Inhibitor Peptides of Centruroides bonito, α-KTx 2.24 Has a Picomolar Affinity for Kv1.2” (Toxins, 2023)
Entries after “also recorded” stand apart in the source; their conditions may differ. Read-outs that look alike come from different tables or passages of the source. Where a SMILES comes first, the peptide text is derived from it. Bridges are numbered along the chain shown (N, C = ends).

How the values were obtained:
Type in all cases: cell-based
Kv1.3 = biological target: T1, Kv1.3 (Homo sapiens, UniProt P22001); assay: Whole-cell patch-clamp of Kv1.3 currents in PHA-activated human T lymphocytes; settings: for Hill coefficient H, Kv1.3 block: Hill fit of isochronal RCF (4 ms)
T1 construct: endogenous in cells
Protocol: (§1) Macroscopic Kv1.1 and Kv1.2 currents were measured in transiently transfected CHO cells. For Kv1.3 current recording, human T lymphocytes were activated by Phytohemagglutinin A (PHA) to increase Kv1.3 channel expression, and micro-pipettes were filled with Ca^2+-free solution to prevent KCa3.1 channel activation. K^+ currents were evoked by applying 15-ms-long depolarization pulses to +50 mV from a holding potential of −120 mV except for Kv1.2, as it has highly variable activation kinetics; therefore, 15–500 ms-long pulses were applied to maximize the open probability of Kv1.2 channel. CboK peptide toxins were dissolved in a freshly prepared extracellular solution and applied to the whole-cell patch-clamped cells using a micro perfusion system at 200 μL/min flow rate.
Isochronal RCF data points obtained this way (isochronal RCF = I4ms/I4ms,0 where I4ms,0 and I4ms are the currents at 4 ms time point in the absence and presence of CboK peptides, respectively) at different toxin concentrations were fitted with the Hill equation to obtain concentration–response curves as shown in Figure 6H.
Human peripheral venous blood was acquired from anonymous healthy volunteers from the blood bank. Blood samples were collected by having approval from the Ethical Committee of the Hungarian Medical Research Council (36255-6/2017/EKU). PBMCs were separated by Histopaque 1077 (Sigma-Aldrich, Budapest, Hungary) separation technique, and isolated cells, at the density of 5 × 10^5 cells, were cultured in RPMI 1640 media (Gibco, Grand Island, NY, USA) supplemented with 10% FBS (Sigma-Aldrich, Budapest, Hungary), 2 mM L-glutamine, […], and […] penicillin in a humidified incubator at 37 °C and 5% CO2 for 3–6 days. A measure of 2, 5, or 10 μg/mL of Phytohemagglutinin A (PHA) (Sigma-Aldrich, Budapest, Hungary) was added in cultured cells to activate the PBMCs and upregulate the Kv1.3 expression.
(§2) The patch-clamp technique was used for measuring whole-cell currents in voltage-clamped mode using standard protocols. Electrophysiological recordings were acquired by using Multiclamp 700B amplifier connected to a personnel computer with an Axon Digidata1440 digitizer (Molecular Devices, Sunnyvale, CA, USA). Pipettes were pulled from GC150F-15 borosilicate capillaries (Harvard Apparatus, Kent, UK) having 3−5 MΩ tip resistance in the bath solution. All current recordings were carried out at room temperature (20−25 °C) and only those currents were recorded and subjected to analyses when the leak current at holding potential was <5% of peak current at the test potential. Current traces were lowpass-filtered by utilizing the built-in analog four-pole Bessel filters of the amplifiers and were sampled at 20 kHz which is at least twice the filter cut-off frequency. A gravity-driven perfusion system was used to perfuse the cells with control and test solutions and excess fluid was removed continuously through vacuum suction.

hKv1.1 = biological target: T2, hKv1.1 (Homo sapiens, UniProt Q09470); assay: Whole-cell patch-clamp of Kv1.1 currents in transiently transfected CHO cells
T2 construct: host or cells: CHO cells, transient transfection (Lipofectamine 2000)
Protocol: as §1
(§3) CHO cells were transiently transfected by using Lipofectamine 2000 kit (Invitrogen, Carlsbad, CA, USA), as per the manufacturer’s protocol with vector pCMV6-AC-GFP (cat# RG211000 and RC222200; OriGene Technologies, Rockville, MD, USA) encoding hKv1.1 (hKCNA1 gene) or hKv1.2 (hKCNA2 gene) ion channels. Cells were grown under standard conditions in an incubator at 37 °C and 5% CO2 for 24 h. GFP-positive transfected cells were identified by utilizing a Nikon TMS fluorescence microscope (Nikon, Tokyo, Japan) using bandpass filters of 455–495 nm and 515–555 nm for excitation and emission, respectively.
as §2, with “suction. The extracellular solution (bath solution) contained 145 mM NaCl, 5.5 mM glucose, 5 mM KCl, 2.5 mM CaCl2, 1 mM MgCl2, and 10 mM HEPES, having pH of 7.35 and an osmolarity between 302 and 308 mOsM/L. Toxins were dissolved in bath solution at different molar concentrations and supplemented with 0.1 mg/mL of bovine serum albumin BSA (Sigma-Aldrich, Budapest, Hungary). The intracellular solution (pipette filling) was comprised of 140 mM KF, 2 mM MgCl2, 1 mM CaCl2, 10 mM HEPES, and 11 mM EGTA, with a pH of 7.22 and an osmolarity of ~295 mOsM/L.” for “suction.”
(§4) Generally, to evoke the Kv1.xcurrents, 15-ms-long depolarization pulses to +50 mV from a holding potential of −120 mV were applied, and the current traces were recorded after every 15 s. However, in the case of Kv1.2, due to its variable activation kinetics, the duration of the depolarization pulse was set between 15 and 500 ms to attain the saturated peak current.

hKv1.2 = biological target: T3, hKv1.2 (Homo sapiens, UniProt P16389); assay: Whole-cell patch-clamp of Kv1.2 currents in transiently transfected CHO cells
T3 construct: GFP (C); host or cells: CHO cells, transient transfection (Lipofectamine 2000)
Protocol: as §1, §3
as §2, with “suction. The extracellular solution (bath solution) contained 145 mM NaCl, 5.5 mM glucose, 5 mM KCl, 2.5 mM CaCl2, 1 mM MgCl2, and 10 mM HEPES, having pH of 7.35 and an osmolarity between 302 and 308 mOsM/L. Toxins were dissolved in bath solution at different molar concentrations and supplemented with 0.1 mg/mL of bovine serum albumin BSA (Sigma-Aldrich, Budapest, Hungary). The intracellular solution (pipette filling) was comprised of 140 mM KF, 2 mM MgCl2, 1 mM CaCl2, 10 mM HEPES, and 11 mM EGTA, with a pH of 7.22 and an osmolarity of ~295 mOsM/L.” for “suction.”
as §4

[1] = Hill fit of RCF vs toxin concentration, n ≥ 3

T1 sequence (P22001 whole entry): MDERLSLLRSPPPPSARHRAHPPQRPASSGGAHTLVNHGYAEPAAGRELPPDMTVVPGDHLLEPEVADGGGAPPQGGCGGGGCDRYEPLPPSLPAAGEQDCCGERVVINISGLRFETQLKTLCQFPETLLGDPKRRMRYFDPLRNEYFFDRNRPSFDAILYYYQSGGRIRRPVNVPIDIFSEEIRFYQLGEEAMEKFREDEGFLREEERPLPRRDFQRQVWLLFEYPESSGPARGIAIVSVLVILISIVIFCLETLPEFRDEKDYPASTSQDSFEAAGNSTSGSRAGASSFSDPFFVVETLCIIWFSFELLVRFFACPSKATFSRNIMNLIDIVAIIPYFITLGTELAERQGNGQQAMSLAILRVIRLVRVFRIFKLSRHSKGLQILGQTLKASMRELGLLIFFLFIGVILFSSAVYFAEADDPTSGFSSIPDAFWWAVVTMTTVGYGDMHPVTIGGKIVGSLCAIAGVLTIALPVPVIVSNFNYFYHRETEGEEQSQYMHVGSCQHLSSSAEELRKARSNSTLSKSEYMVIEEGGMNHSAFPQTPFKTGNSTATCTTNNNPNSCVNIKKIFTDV
T2 sequence (Q09470 whole entry): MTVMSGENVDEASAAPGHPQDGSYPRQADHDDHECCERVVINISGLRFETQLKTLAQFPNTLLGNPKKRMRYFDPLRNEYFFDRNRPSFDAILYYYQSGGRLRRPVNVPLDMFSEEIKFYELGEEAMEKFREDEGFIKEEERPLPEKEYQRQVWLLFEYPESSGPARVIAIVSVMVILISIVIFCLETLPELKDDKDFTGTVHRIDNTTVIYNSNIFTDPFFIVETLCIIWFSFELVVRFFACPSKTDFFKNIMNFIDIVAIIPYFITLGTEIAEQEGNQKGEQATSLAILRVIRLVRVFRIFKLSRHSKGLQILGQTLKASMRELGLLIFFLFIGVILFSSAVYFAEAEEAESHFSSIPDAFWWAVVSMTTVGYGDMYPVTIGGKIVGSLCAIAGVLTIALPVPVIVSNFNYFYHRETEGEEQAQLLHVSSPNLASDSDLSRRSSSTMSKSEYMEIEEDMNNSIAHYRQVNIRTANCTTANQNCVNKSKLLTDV
T3 sequence (P16389 whole entry): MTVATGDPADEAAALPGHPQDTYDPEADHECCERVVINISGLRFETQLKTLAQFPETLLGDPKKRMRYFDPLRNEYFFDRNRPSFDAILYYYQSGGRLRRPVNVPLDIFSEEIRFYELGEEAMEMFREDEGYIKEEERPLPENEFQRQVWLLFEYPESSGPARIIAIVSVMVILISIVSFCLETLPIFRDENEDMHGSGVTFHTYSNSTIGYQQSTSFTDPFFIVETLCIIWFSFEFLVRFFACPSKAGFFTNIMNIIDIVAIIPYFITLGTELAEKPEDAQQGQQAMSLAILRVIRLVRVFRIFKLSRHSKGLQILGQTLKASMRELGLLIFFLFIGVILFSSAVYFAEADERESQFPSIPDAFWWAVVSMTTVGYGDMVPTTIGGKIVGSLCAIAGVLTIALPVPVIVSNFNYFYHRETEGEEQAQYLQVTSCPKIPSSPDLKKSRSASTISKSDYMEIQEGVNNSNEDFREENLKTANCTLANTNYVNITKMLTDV

CC[C@H](C)[C@@H]1NC(=O)[C@@H]2CSSC[C@H](NC(=O)[C@H](C)NC(=O)[C@@H](NC(=O)[C@@H](N)CC(N)=O)C(C)C)C(=O)N[C@@H](C(C)C)C(=O)N[C@@H](Cc3c[nH]cn3)C(=O)N[C@@H](CCCNC(=N)N)C(=O)N[C@@H]([C@@H](C)O)C(=O)N[C@H]3CSSC[C@H](NC(=O)[C@H](CCCCN)NC(=O)[C@H](CCCNC(=N)N)NC(=O)[C@H](CC(N)=O)NC1=O)C(=O)N[C@@H](CC(N)=O)C(=O)N[C@H](C(=O)N[C@@H](Cc1ccc(O)cc1)C(=O)N1CCC[C@H]1C(=O)N[C@@H](Cc1c[nH]cn1)C(=O)O)CSSC[C@H](NC(=O)[C@H](CC(N)=O)NC(=O)[C@H](CO)NC(=O)[C@H](CC(=O)O)NC3=O)C(=O)N[C@@H](CCCCN)C(=O)N[C@@H](CCCNC(=N)N)C(=O)N[C@@H](CC(N)=O)C(=O)NCC(=O)N[C@@H](Cc1ccc(O)cc1)C(=O)N[C@@H](CCCCN)C(=O)N[C@@H](CO)C(=O)NCC(=O)N[C@@H](CCCCN)C(=O)N2 [CboK1] (H-NVACVHRTCDSNCKRNGYKSGKCINRKCNCYPH-OH; disulfide 4-23, 9-28, 13-30)
effect on Kv1.3 currents (Kv1.3; 100 nM toxin): did not show any effect
inhibition of Kv1.3 currents (Kv1.3; 100 nM toxin, equilibrium block, screening summary (Figure 4F), n ≥ 3): less than 4%
Kd (Kv1.3; this study, screened at 100 nM, read-out: Kd Values Kv1.3 (symbol)): > 100 nM
effect on Kv1.1 currents (hKv1.1; 100 nM toxin): did not show any effect
Kd (hKv1.1; this study, screened at 100 nM, read-out: Kd Values Kv1.1 (symbol)): > 100 nM
effect on Kv1.2 currents (hKv1.2; 100 nM toxin): totally insensitive; also recorded: did not show any effect
Kd (hKv1.2; this study, CboK1 tested at 100 nM, read-out: Kd Values Kv1.2 (symbol)): > 100 nM

CC[C@H](C)[C@H](NC(=O)[C@@H](N)[C@@H](C)O)C(=O)N[C@H](C(=O)N[C@@H](CC(N)=O)C(=O)N[C@H](C(=O)N[C@@H](CCCCN)C(=O)N[C@H]1CSSC[C@@H]2NC(=O)[C@H](CCCCN)NC(=O)[C@H](CCC(=O)O)NC(=O)CNC(=O)[C@H](C)NC(=O)[C@H](Cc3c[nH]cn3)NC(=O)[C@@H]3CCCN3C(=O)CNC(=O)[C@H](Cc3ccc(O)cc3)NC(=O)[C@H](CC(C)C)NC(=O)[C@H](CC(=O)O)NC(=O)[C@H](CCCCN)NC(=O)[C@@H]3CSSC[C@@H](C(=O)N[C@@H](Cc4ccc(O)cc4)C(=O)N[C@@H](CCCCN)C(=O)N[C@H](C(=O)O)C(C)C)NC(=O)[C@H](CCCCN)NC(=O)[C@H](CSSC[C@H](NC(=O)[C@H](CCC(N)=O)NC(=O)[C@H](CCCCN)NC(=O)[C@@H]4CCCN4C(=O)[C@H](CO)NC(=O)[C@H]([C@@H](C)O)NC1=O)C(=O)N[C@@H](CC(C)C)C(=O)N[C@@H](CCCCN)C(=O)N1CCC[C@H]1C(=O)N3)NC(=O)[C@H](CCCCN)NC(=O)CNC(=O)[C@H](CC(N)=O)NC(=O)[C@H](CCSC)NC2=O)C(C)C)[C@@H](C)CC [CboK3] (H-TIINVKCTSPKQCLKPCKDLYGPHAGEKCMNGKCKCYKV-OH; disulfide 7-29, 13-34, 17-36)
time for onset of steady-state block and complete recovery, Kv1.3 (Kv1.3; 5, 15, 40, 100, 350 nM toxin): ~ 1 min
Hill coefficient H, Kv1.3 block (Kv1.3; n ≥ 3): 0.96
reversibility of Kv1.3 block (Kv1.3; wash with toxin-free external solution): fully reversible
Hill coefficient H, Kv1.2 block (hKv1.2; [1]): 1.2

CC[C@H](C)[C@H](NC(=O)[C@H](Cc1ccccc1)NC(=O)[C@@H](N)[C@@H](C)O)C(=O)N[C@@H](CC(N)=O)C(=O)N[C@H](C(=O)N[C@@H](CCCCN)C(=O)N[C@H]1CSSC[C@@H]2NC(=O)[C@H](CCCCN)NC(=O)[C@H](CCC(=O)O)NC(=O)CNC(=O)[C@H](C)NC(=O)[C@H](Cc3c[nH]cn3)NC(=O)[C@@H]3CCCN3C(=O)CNC(=O)[C@H](Cc3ccc(O)cc3)NC(=O)[C@H](CC(C)C)NC(=O)[C@H](CC(=O)O)NC(=O)[C@H](CCCCN)NC(=O)[C@@H]3CSSC[C@@H](C(=O)N[C@@H](Cc4ccc(O)cc4)C(=O)N[C@@H](CCCCN)C(=O)N4CCC[C@H]4C(=O)O)NC(=O)[C@H](CCCCN)NC(=O)[C@H](CSSC[C@H](NC(=O)[C@H](CCC(N)=O)NC(=O)[C@H](CCCCN)NC(=O)[C@@H]4CCCN4C(=O)[C@H](CO)NC(=O)[C@H]([C@@H](C)O)NC1=O)C(=O)N[C@@H](CC(C)C)C(=O)N[C@@H](CCCCN)C(=O)N1CCC[C@H]1C(=O)N3)NC(=O)[C@H](CCCCN)NC(=O)CNC(=O)[C@H](CC(N)=O)NC(=O)[C@H](CCSC)NC2=O)C(C)C [CboK4] (H-TFINVKCTSPKQCLKPCKDLYGPHAGEKCMNGKCKCYKP-OH; disulfide 7-29, 13-34, 17-36 (inferred); N-terminus and C-terminus assumed)
Hill coefficient H, Kv1.3 block (Kv1.3; n ≥ 3): 0.94
Kd (Kv1.3; Hill fit of isochronal RCF (current at 4 ms), 15-ms pulses to +50 mV from -120 mV, n ≥ 3, read-out: Kd for Kv1.3): 21.7 nM
inhibition of Kv1.1 currents (hKv1.1; 100 nM toxin, equilibrium block, screening summary (Figure 4D), n ≥ 3): less than 10%
Kd (hKv1.2; Hill fit of RCF vs toxin concentration, cumulative application, equilibrium block, pulses to +50 mV from -120 mV, n ≥ 3, read-out: Kd for Kv1.2): 0.125 nM
Hill coefficient H, Kv1.2 block (hKv1.2; [1]): 1.0

CC[C@H](C)[C@H](NC(=O)[C@H](Cc1ccccc1)NC(=O)[C@@H](N)[C@@H](C)O)C(=O)N[C@@H](CC(N)=O)C(=O)N[C@H](C(=O)N[C@@H](CCCCN)C(=O)N[C@H]1CSSC[C@@H]2NC(=O)[C@H](CCCCN)NC(=O)[C@H](CCC(=O)O)NC(=O)CNC(=O)[C@H](C)NC(=O)[C@H](Cc3c[nH]cn3)NC(=O)[C@@H]3CCCN3C(=O)CNC(=O)[C@H](Cc3ccc(O)cc3)NC(=O)[C@H](CC(C)C)NC(=O)[C@H](CC(=O)O)NC(=O)[C@H](CCCCN)NC(=O)[C@@H]3CSSC[C@@H](C(=O)N[C@@H](Cc4ccc(O)cc4)C(=O)N[C@@H](CCCCN)C(=O)N[C@H](C(=O)O)C(C)C)NC(=O)[C@H](CCCCN)NC(=O)[C@H](CSSC[C@H](NC(=O)[C@H](CCC(N)=O)NC(=O)[C@H](CCCCN)NC(=O)[C@@H]4CCCN4C(=O)[C@H](CO)NC(=O)[C@H]([C@@H](C)O)NC1=O)C(=O)N[C@@H](CC(C)C)C(=O)N[C@@H](CCCCN)C(=O)N1CCC[C@H]1C(=O)N3)NC(=O)[C@H](CCCCN)NC(=O)CNC(=O)[C@H](CC(N)=O)NC(=O)[C@H](CCSC)NC2=O)C(C)C [CboK7] (H-TFINVKCTSPKQCLKPCKDLYGPHAGEKCMNGKCKCYKV-OH; disulfide 7-29, 13-34, 17-36)
Hill coefficient H, Kv1.3 block (Kv1.3; n ≥ 3): 0.8
Hill coefficient H, Kv1.2 block (hKv1.2; [1]): 1.3
